From article PMC10838953

Key:
[1] = biological target: ABL1(T315I)-phosphorylated (Homo sapiens, UniProt P00519, T315I); experiment: biochemical; details: read-out: %Ctrl @ 2000nM
ABL1-phosphorylated = ABL1-phosphorylated (Homo sapiens, UniProt P00519); experiment: biochemical; details: read-out: %Ctrl @ 2000nM
ACVR1 = ACVR1 (Homo sapiens, UniProt Q04771); experiment: biochemical; details: read-out: %Ctrl @ 2000nM
ADCK4 = ADCK4 (Homo sapiens, UniProt Q96D53); experiment: biochemical; details: read-out: %Ctrl @ 2000nM
ASK1 = ASK1 (Homo sapiens, UniProt Q99683); experiment: biochemical; details: read-out: %Ctrl @ 2000nM
BTK = BTK (Homo sapiens, UniProt Q06187); experiment: biochemical; details: read-out: %Ctrl @ 2000nM
CAMK1G = CAMK1G (Homo sapiens, UniProt Q96NX5); experiment: biochemical; details: read-out: %Ctrl @ 2000nM
CAMK2G = CAMK2G (Homo sapiens, UniProt Q13555); experiment: biochemical; details: read-out: %Ctrl @ 2000nM
CLK3 = CLK3 (Homo sapiens, UniProt P49761); experiment: biochemical; details: read-out: %Ctrl @ 2000nM
DDR1 = DDR1 (Homo sapiens, UniProt Q08345); experiment: biochemical; details: read-out: %Ctrl @ 2000nM
DDR2 = DDR2 (Homo sapiens, UniProt Q16832); experiment: biochemical; details: read-out: %Ctrl @ 2000nM
EPHA2 = EPHA2 (Homo sapiens, UniProt P29317); experiment: biochemical; details: read-out: %Ctrl @ 2000nM
EPHB6 = EPHB6 (Homo sapiens, UniProt O15197); experiment: biochemical; details: read-out: %Ctrl @ 2000nM
ERK4 = ERK4 (Homo sapiens, UniProt P31152); experiment: biochemical; details: read-out: %Ctrl @ 2000nM
ERK8 = ERK8 (Homo sapiens, UniProt Q8TD08); experiment: biochemical; details: read-out: %Ctrl @ 2000nM
FGFR3 = FGFR3 (Homo sapiens, UniProt P22607); experiment: biochemical; details: read-out: %Ctrl @ 2000nM
FLT3(D835Y) = FLT3(D835Y) (Homo sapiens, UniProt P36888, D835Y); experiment: biochemical; details: read-out: %Ctrl @ 2000nM
FLT3(R834Q) = FLT3(R834Q) (Homo sapiens, UniProt P36888, R834Q); experiment: biochemical; details: read-out: %Ctrl @ 2000nM
FLT4 = FLT4 (Homo sapiens, UniProt P35916); experiment: biochemical; details: read-out: %Ctrl @ 2000nM
GCN2(Kin.Dom.2,S808G) = GCN2(Kin.Dom.2,S808G) (Homo sapiens, UniProt Q9P2K8, S808G); experiment: biochemical; details: read-out: %Ctrl @ 2000nM
HIPK4 = HIPK4 (Homo sapiens, UniProt Q8NE63); experiment: biochemical; details: read-out: %Ctrl @ 2000nM
ICK = ICK (Homo sapiens, UniProt Q9UPZ9); experiment: biochemical; details: read-out: %Ctrl @ 2000nM
[2] = biological target: JAK1(JH1domain-catalytic) (Homo sapiens, UniProt P23458); experiment: biochemical; details: read-out: %Ctrl @ 2000nM
MEK5 = MEK5 (Homo sapiens, UniProt Q13163); experiment: biochemical; details: read-out: %Ctrl @ 2000nM
MST3 = MST3 (Homo sapiens, UniProt Q9Y6E0); experiment: biochemical; details: read-out: %Ctrl @ 2000nM
NIM1 = NIM1 (Homo sapiens, UniProt Q8IY84); experiment: biochemical; details: read-out: %Ctrl @ 2000nM
PAK1 = PAK1 (Homo sapiens, UniProt Q13153); experiment: biochemical; details: read-out: %Ctrl @ 2000nM
PAK6 = PAK6 (Homo sapiens, UniProt Q9NQU5); experiment: biochemical; details: read-out: %Ctrl @ 2000nM
PDGFRB = PDGFRB (Homo sapiens, UniProt P09619); experiment: biochemical; details: read-out: %Ctrl @ 2000nM
PIK3CA = PIK3CA (Homo sapiens, UniProt P42336); experiment: biochemical; details: read-out: %Ctrl @ 2000nM
PIK3CA(I800L) = PIK3CA(I800L) (Homo sapiens, UniProt P42336, I800L); experiment: biochemical; details: read-out: %Ctrl @ 2000nM
PIK3CG = PIK3CG (Homo sapiens, UniProt P48736); experiment: biochemical; details: read-out: %Ctrl @ 2000nM
PIP5K1A = PIP5K1A (Homo sapiens, UniProt Q99755); experiment: biochemical; details: read-out: %Ctrl @ 2000nM
PIP5K1C = PIP5K1C (Homo sapiens, UniProt O60331); experiment: biochemical; details: read-out: %Ctrl @ 2000nM
RIOK3 = RIOK3 (Homo sapiens, UniProt O14730); experiment: biochemical; details: read-out: %Ctrl @ 2000nM
[3] = biological target: RSK2(Kin.Dom.1-N-terminal) (Homo sapiens, UniProt P51812); experiment: biochemical; details: read-out: %Ctrl @ 2000nM
[4] = biological target: RSK3(Kin.Dom.1-N-terminal) (Homo sapiens, UniProt Q15349); experiment: biochemical; details: read-out: %Ctrl @ 2000nM
SRPK1 = SRPK1 (Homo sapiens, UniProt Q96SB4); experiment: biochemical; details: read-out: %Ctrl @ 2000nM
TAOK1 = TAOK1 (Homo sapiens, UniProt Q7L7X3); experiment: biochemical; details: read-out: %Ctrl @ 2000nM
TNK2 = TNK2 (Homo sapiens, UniProt Q07912); experiment: biochemical; details: read-out: %Ctrl @ 2000nM
TSSK1B = TSSK1B (Homo sapiens, UniProt Q9BXA7); experiment: biochemical; details: read-out: %Ctrl @ 2000nM

MST3, sequence (Q9Y6E0 whole entry): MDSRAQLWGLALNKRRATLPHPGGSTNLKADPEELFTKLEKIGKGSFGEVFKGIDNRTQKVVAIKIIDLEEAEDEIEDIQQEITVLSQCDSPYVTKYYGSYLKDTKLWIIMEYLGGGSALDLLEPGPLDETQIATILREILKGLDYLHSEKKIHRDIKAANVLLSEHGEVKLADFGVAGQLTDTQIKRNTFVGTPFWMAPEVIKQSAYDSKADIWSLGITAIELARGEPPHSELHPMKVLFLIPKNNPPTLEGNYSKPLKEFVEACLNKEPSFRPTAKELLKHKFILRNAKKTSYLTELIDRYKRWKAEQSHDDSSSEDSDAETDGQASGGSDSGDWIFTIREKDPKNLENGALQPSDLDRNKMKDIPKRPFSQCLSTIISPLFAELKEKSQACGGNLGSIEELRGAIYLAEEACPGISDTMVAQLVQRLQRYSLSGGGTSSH
PIK3CA(I800L), sequence (P42336 whole entry I800L): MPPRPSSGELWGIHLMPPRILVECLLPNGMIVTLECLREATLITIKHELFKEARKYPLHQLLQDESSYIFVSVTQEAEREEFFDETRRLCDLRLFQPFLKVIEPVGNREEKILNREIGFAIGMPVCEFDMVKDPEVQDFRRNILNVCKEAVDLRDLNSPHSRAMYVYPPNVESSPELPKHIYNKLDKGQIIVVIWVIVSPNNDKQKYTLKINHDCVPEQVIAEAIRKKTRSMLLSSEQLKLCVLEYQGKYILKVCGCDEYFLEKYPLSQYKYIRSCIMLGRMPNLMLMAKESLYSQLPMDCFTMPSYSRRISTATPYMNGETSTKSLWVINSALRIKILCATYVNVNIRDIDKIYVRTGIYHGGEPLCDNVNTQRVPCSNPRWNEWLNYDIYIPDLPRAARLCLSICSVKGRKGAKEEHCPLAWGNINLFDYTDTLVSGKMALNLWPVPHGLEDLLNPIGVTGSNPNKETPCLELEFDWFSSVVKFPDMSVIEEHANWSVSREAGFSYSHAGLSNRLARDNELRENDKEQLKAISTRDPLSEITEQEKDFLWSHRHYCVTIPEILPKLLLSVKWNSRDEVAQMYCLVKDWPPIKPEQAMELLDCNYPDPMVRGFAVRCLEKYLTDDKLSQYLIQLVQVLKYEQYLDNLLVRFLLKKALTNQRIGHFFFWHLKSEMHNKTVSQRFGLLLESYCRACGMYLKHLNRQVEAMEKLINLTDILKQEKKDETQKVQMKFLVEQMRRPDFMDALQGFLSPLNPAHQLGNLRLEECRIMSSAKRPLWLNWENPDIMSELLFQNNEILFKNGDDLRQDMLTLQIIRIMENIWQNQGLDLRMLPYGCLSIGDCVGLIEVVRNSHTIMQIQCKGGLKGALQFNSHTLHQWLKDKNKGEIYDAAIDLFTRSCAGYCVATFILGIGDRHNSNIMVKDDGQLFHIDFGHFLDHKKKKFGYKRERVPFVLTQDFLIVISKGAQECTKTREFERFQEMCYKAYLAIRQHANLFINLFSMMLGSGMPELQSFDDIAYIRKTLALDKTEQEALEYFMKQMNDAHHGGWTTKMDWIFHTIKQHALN
ASK1, sequence (Q99683 whole entry): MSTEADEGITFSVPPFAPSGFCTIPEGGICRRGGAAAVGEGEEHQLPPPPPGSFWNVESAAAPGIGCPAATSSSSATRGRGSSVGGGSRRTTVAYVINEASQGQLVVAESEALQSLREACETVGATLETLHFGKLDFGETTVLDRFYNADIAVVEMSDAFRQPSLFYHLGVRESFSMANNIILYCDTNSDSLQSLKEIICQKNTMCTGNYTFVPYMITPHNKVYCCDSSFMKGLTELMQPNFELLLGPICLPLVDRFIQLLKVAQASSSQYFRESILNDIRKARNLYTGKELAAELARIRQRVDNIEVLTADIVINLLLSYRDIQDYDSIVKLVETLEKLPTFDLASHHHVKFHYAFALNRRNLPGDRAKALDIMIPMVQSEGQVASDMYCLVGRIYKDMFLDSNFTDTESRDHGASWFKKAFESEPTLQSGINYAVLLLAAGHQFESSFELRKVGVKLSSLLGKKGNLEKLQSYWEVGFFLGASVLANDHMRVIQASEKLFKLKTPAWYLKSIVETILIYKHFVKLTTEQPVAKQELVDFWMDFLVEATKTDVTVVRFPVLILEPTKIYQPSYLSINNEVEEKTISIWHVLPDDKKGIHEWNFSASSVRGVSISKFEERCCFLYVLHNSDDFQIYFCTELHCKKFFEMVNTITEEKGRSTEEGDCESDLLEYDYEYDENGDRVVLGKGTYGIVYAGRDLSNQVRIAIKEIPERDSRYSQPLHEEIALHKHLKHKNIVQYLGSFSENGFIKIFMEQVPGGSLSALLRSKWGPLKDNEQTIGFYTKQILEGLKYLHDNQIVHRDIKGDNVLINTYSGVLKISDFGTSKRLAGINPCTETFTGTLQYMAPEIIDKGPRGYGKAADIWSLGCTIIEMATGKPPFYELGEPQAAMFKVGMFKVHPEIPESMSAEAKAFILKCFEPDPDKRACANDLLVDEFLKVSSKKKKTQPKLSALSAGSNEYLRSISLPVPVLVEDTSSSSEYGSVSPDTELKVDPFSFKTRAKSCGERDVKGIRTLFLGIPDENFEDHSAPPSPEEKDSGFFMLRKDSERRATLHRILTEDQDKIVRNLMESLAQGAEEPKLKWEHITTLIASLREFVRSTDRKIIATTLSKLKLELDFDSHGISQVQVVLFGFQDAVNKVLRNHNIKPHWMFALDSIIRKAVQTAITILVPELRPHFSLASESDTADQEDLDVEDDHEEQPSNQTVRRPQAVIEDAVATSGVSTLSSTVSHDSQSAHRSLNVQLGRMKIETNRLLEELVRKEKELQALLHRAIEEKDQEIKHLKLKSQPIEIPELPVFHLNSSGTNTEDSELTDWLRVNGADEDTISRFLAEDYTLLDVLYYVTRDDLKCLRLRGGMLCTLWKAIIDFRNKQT
CLK3, sequence (P49761 whole entry): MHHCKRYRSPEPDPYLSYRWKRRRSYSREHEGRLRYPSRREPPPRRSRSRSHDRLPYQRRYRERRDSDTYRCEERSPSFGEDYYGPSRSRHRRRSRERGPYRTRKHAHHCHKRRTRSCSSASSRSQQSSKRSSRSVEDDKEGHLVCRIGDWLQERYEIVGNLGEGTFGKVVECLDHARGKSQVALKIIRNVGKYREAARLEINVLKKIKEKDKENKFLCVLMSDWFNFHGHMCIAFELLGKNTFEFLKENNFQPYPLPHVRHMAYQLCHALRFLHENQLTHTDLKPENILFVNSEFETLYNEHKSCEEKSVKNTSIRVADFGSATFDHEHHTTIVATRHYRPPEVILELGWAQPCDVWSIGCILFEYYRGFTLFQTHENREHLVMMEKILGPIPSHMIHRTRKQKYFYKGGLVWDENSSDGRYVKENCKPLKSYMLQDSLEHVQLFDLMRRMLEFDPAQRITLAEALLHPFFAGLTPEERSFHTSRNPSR
HIPK4, sequence (Q8NE63 whole entry): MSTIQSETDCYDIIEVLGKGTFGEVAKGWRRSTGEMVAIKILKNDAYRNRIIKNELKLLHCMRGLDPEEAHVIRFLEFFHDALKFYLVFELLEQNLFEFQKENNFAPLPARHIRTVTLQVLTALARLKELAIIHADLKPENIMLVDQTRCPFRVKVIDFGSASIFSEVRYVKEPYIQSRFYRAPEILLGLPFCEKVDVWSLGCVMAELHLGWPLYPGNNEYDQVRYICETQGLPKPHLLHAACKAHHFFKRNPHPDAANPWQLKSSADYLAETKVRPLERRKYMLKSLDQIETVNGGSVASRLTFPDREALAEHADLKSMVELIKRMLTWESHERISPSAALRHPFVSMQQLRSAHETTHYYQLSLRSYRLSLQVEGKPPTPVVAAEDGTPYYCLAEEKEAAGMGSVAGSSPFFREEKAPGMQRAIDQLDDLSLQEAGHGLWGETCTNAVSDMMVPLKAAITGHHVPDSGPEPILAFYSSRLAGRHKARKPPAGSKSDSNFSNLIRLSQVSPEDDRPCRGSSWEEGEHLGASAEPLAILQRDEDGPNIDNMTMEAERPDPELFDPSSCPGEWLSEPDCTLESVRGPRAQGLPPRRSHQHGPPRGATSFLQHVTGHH
DDR1, sequence (Q08345 19-913): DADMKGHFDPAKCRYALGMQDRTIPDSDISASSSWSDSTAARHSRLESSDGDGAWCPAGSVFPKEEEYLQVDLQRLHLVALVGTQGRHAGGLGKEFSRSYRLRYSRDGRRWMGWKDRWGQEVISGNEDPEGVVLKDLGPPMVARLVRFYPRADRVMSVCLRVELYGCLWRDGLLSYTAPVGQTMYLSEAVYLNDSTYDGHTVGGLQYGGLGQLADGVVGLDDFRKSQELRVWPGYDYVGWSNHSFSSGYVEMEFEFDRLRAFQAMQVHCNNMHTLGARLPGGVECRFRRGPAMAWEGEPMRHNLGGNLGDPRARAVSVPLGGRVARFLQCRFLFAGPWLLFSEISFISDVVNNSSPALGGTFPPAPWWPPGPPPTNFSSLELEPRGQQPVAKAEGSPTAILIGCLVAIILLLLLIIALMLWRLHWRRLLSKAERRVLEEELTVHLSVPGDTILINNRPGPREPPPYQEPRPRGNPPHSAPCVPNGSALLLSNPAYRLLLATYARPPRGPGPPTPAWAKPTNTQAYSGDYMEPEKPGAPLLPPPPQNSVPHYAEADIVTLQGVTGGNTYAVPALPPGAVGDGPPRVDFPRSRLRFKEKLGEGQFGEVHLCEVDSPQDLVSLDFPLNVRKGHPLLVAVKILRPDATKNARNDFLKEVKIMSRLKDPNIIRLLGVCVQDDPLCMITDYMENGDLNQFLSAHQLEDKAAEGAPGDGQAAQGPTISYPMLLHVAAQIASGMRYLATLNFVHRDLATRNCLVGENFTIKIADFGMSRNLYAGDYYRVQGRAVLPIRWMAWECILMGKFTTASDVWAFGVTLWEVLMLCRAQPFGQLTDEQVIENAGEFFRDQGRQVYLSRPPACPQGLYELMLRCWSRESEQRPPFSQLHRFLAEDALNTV
PIK3CA, sequence (P42336 whole entry): as the sequence (P42336 whole entry I800L) above, with L800I counted along it

With `CC(C)COC(=O)c1[nH]c2ccc(F)cc2c1-c1cn(CC2CCN(CCNS(=O)(=O)c3ccc(CC(C)C)cc3)CC2)nn1` [AB668, isobutyl 5-fluoro-3-(1-((1-(2-((4-isobutylphenyl)sulfonamido)ethyl)piperidin-4-yl)methyl)-1H-1,2,3-triazol-4-yl)-1H-indole-2-carboxylate] the “%Ctrl @ 2000nM” value (FLT3(ITD)) was 93%, the “CK2 inhibition 8 h after inhibitor removal” value (CK2 in 786-O cells) was “persisted” and the remaining activity at 2 µM [1] was 79%. For the same molecule, the remaining activity at 2 µM (ABL1-phosphorylated) was 82%, the remaining activity at 2 µM (ACVR1) was 100% and the remaining activity at 2 µM (ADCK4) was 80%. For the same molecule, the remaining activity at 2 µM (ASK1) was 100%, the remaining activity at 2 µM (BTK) was 100% and the remaining activity at 2 µM (CAMK1G) was 80%. For the same molecule, the remaining activity at 2 µM (CAMK2G) was 78%, the remaining activity at 2 µM (CLK3) was 79% and the remaining activity at 2 µM (DDR1) was 96%. It also gave a remaining activity at 2 µM (DDR2) of 94%, a remaining activity at 2 µM (EPHA2) of 92% and a remaining activity at 2 µM (EPHB6) of 82%. The remaining activity at 2 µM (ERK4) was 84%, the remaining activity at 2 µM (ERK8) was 53% and the remaining activity at 2 µM (FGFR3) was 89%. The remaining activity at 2 µM (FLT3(D835Y)) was 79%, the remaining activity at 2 µM (FLT3(R834Q)) was 77% and the remaining activity at 2 µM (FLT4) was 98%. It also gave a remaining activity at 2 µM (GCN2(Kin.Dom.2,S808G)) of 80%, a remaining activity at 2 µM (HIPK4) of 87% and a remaining activity at 2 µM (ICK) of 100%. It also gave a remaining activity at 2 µM [2] of 75%, a remaining activity at 2 µM (MEK5) of 100% and a remaining activity at 2 µM (MST3) of 100%. The remaining activity at 2 µM (NIM1) was 84%, the remaining activity at 2 µM (PAK1) was 99% and the remaining activity at 2 µM (PAK6) was 90%. For the same molecule, the remaining activity at 2 µM (PDGFRB) was 100%, the remaining activity at 2 µM (PIK3CA) was 82% and the remaining activity at 2 µM (PIK3CA(I800L)) was 98%. It also gave a remaining activity at 2 µM (PIK3CG) of 90%, a remaining activity at 2 µM (PIP5K1A) of 85% and a remaining activity at 2 µM (PIP5K1C) of 87%. The remaining activity at 2 µM (RIOK3) was 97%, the remaining activity at 2 µM [3] was 61% and the remaining activity at 2 µM [4] was 93%. The remaining activity at 2 µM (SRPK1) was 88%, the remaining activity at 2 µM (TAOK1) was 100% and the remaining activity at 2 µM (TNK2) was 100%. For the same molecule, the remaining activity at 2 µM (TSSK1B) was 91%.
